Measured values published in US20230117034A1, “PYRAZOLOTRIAZINES” (Bayer Aktiengesellschaft, priority 2019, published 2023).

Assays:
[1] = tested on: BRCA1 mRNA expression in MDA-MB-231 cells; test: qRT-PCR assay: BRCA1 mRNA expression in MDA-MB-231; type: cell-based, human; settings: Homo sapiens, MDA-MB-231, Inhibition of BRCA1 mRNA expression in MDA-MB-231 cells; median; read-out: RTqPCR-MDA-MB-231, IC50, BRCA1 (median)
Procedure, shortened: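 Cells were seeded at 200,000 cells/well, left 24 h, then exposed continuously to test substances for 24 h. Total RNA (600 ng) was reverse-transcribed to cDNA and amplified by qPCR, and transcript levels were normalised to GAPDH housekeeping expression.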

CDK9/CycT1 = target: T1, CDK9/CycT1 (Homo sapiens, UniProt P50750); test: CDK9/CycT1 high ATP kinase assay (TR-FRET, 2 mM ATP); type: biochemical; settings: 2 mM ATP (high ATP); median; read-out: CDK9/CyclinT1, 2 mM ATP (high ATP), IC50 (median)
T1 construct: Recombinant full-length His-tagged human CDK9 and CycT1; purchased Life Technologies PV4131; host or cells: insect cells
Procedure, shortened: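 Full-length His-tagged human CDK9/CycT1 (insect cell, ~0.5 μg/mL) preincubated 15 min at 22 °C with compound in Tris pH 8.0, MgCl2, DTT buffer before reaction with biotinylated peptide substrate at high ATP (2 mM).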

[2] = tested on: MDA-MB-231, human breast cancer cells; test: Proliferation assay MDA-MB-231 (crystal violet, 4 days); type: cell-based; settings: Homo sapiens, MDA-MB-231, 96 h, MDA-MB-231 cells, median, read-out: Prolif-MDA MB-231, IC50-[mol/l] (median)
Procedure, shortened: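 Cells seeded at 4,000/well in medium with 10% FCS; after 24 h, compounds added at 0.01-10 µmol/L (0.1% DMSO) for 4 days. Glutaraldehyde-fixed, crystal violet-stained, absorbance at 595 nm normalized to zero-point plate (0%) and untreated cells (100%); IC50 by 4-parameter fit.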

T1 sequence (P50750 whole entry): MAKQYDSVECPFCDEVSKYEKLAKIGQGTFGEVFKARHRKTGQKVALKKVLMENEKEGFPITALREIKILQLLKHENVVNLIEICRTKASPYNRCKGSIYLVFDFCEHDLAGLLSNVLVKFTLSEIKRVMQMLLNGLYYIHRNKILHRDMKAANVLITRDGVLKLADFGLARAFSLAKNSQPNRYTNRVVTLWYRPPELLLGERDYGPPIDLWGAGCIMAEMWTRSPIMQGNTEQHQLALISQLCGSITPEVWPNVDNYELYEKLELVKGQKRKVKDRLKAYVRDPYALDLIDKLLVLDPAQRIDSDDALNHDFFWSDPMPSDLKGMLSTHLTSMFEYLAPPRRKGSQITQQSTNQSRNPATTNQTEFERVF
T1 sequence (O60563 whole entry partner): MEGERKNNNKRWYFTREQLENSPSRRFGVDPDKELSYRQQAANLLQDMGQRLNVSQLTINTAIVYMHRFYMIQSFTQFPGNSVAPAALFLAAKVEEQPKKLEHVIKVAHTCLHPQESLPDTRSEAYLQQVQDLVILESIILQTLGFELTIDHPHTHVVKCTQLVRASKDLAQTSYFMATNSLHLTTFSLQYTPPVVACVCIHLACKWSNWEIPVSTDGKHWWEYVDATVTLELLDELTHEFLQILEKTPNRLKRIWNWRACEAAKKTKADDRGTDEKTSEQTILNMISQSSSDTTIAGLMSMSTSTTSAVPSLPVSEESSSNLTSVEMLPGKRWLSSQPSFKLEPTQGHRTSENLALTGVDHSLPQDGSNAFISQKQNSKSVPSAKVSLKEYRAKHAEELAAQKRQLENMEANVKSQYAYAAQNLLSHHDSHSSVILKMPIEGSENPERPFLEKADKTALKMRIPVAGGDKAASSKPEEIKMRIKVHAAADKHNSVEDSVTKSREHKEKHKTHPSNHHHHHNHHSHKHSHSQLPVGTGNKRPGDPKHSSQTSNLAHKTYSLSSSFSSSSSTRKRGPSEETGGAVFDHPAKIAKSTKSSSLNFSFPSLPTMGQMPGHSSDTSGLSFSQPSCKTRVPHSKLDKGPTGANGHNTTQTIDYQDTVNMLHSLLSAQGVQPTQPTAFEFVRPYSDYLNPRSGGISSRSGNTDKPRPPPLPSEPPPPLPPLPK

| SMILES | IC50 [1] [µM] | IC50 (CDK9/CycT1) [µM] | IC50 [2] [µM] |
| --- | --- | --- | --- |
| Brc1cnn2c(NCc3nc4ccccc4[nH]3)nc(N3CC4CCC3CN4)nc12 (stereo not drawn) [Example 220, N-(1H-benzimidazol-2-ylmethyl)-8-bromo-2-(2,5-diazabicyclo[2.2.2]octan-2-yl)pyrazolo[1,5-a][1,3,5]triazin-4-amine] | 0.00418 | > 20 | 0.0212 |
| COc1cccc2[nH]c(CNc3nc(N4CCN(C)CC4)nc4c(C5CC5)cnn34)nc12 [Example 197, 8-cyclopropyl-N-[(4-methoxy-1H-benzimidazol-2-yl)methyl]-2-(4-methylpiperazin-1-yl)pyrazolo[1,5-a][1,3,5]triazin-4-amine] | 0.00627 | > 20 | 0.0156 |
| Clc1cnn2c(NCc3nc4ccccc4[nH]3)nc(N3CCOCC3)nc12 [Example 15, N-[(1H-benzimidazol-2-yl)methyl]-8-chloro-2-(morpholin-4-yl)pyrazolo[1,5-a][1,3,5]triazin-4-amine] | 0.01 | > 20 | 0.0446 |
| CC(C)(O)CNc1nc(NCc2nc3ccccc3[nH]2)n2ncc(Br)c2n1 [Example 229, 1-[(4-{[(1H-benzimidazol-2-yl)methyl]amino}-8-bromopyrazolo[1,5-a][1,3,5]triazin-2-yl)amino]-2-methylpropan-2-ol] | 0.0108 | > 20 | 0.0428 |
| O=C1CN(c2nc(NCc3nc4ccccc4[nH]3)n3ncc(Br)c3n2)CCN1 [Example 167, 4-(4-{[(1H-benzimidazol-2-yl)methyl]amino}-8-bromopyrazolo[1,5-a][1,3,5]triazin-2-yl)piperazin-2-one] | 0.429 | > 20 | 0.707 |
| C[C@H]1CN(c2nc(NCc3nc4ccccc4[nH]3)n3ncc(Br)c3n2)CCN1 [Example 169, N-[(1H-benzimidazol-2-yl)methyl]-8-bromo-2-[(3S)-3-methylpiperazin-1-yl]pyrazolo[1,5-a][1,3,5]triazin-4-amine] | 0.00332 | > 20 | 0.0207 |
| Fc1cccc2[nH]c(CNc3nc(N4C[C@@H]5CCCN[C@@H]5C4)nc4c(C5CC5)cnn34)nc12 [Example 187, 8-cyclopropyl-N-[(4-fluoro-1H-benzimidazol-2-yl)methyl]-2-[(4aS,7aS)-octahydro-6H-pyrrolo[3,4-b]pyridin-6-yl]pyrazolo[1,5-a][1,3,5]triazin-4-amine] | 0.00917 | > 20 | 0.0138 |
| COc1cccc2[nH]c(CNc3nc(N4C[C@@H](C)N[C@@H](C)C4)nc4c(C5CC5)cnn34)nc12 [Example 212, 8-cyclopropyl-2-[(3R,5S)-3,5-dimethylpiperazin-1-yl]-N-[(4-methoxy-1H-benzimidazol-2-yl)methyl]pyrazolo[1,5-a][1,3,5]triazin-4-amine] | 0.00549 | > 20 | 0.00545 |
| Brc1cnn2c(NCc3nc4ccccc4[nH]3)nc(N3C[C@H]4CCCN[C@H]4C3)nc12 [Example 199, N-[(1H-benzimidazol-2-yl)methyl]-8-bromo-2-[(4aR, 7aR)-octahydro-6H-pyrrolo[3,4-b]pyridin-6-yl]pyrazolo[1,5-a][1,3,5]triazin-4-amine] | 0.0479 | > 20 | 0.0532 |
| Cc1ccc2[nH]c(CNc3nc(N4C[C@H]5C[C@@H]4CO5)nc4c(C5CC5)cnn34)nc2c1 [Example 196, 8-cyclopropyl-N-[(5-methyl-1H-benzimidazol-2-yl)methyl]-2-[(1R,4R)-2-oxa-5-azabicyclo[2.2.1]heptan-5-yl]pyrazolo[1,5-a][1,3,5]triazin-4-amine] | 0.00427 | > 20 | 0.0129 |
| Fc1ccc2[nH]c(CNc3nc(N4CCNCC4)nc4c(C5CC5)cnn34)nc2c1F [Example 174, 8-cyclopropyl-N-[(4,5-difluoro-1H-benzimidazol-2-yl)methyl]-2-(piperazin-1-yl)pyrazolo[1,5-a][1,3,5]triazin-4-amine] | 0.000872 | > 20 | 0.00219 |
| Fc1ccc2[nH]c(CNc3nc(N4C[C@@H]5CCCN[C@@H]5C4)nc4c(C5CC5)cnn34)nc2c1F [Example 171, 8-cyclopropyl-N-[(4,5-difluoro-1H-benzimidazol-2-yl)methyl]-2-[(4aS,7aS)-octahydro-6H-pyrrolo[3,4-b]pyridin-6-yl]pyrazolo[1,5-a][1,3,5]triazin-4-amine] | 0.00103 | > 20 | 0.00549 |
| Fc1cccc2[nH]c(CNc3nc(N4CCOCC4)nc4c(C5CC5)cnn34)nc12 [Example 188, 8-cyclopropyl-N-[(4-fluoro-1H-benzimidazol-2-yl)methyl]-2-(morpholin-4-yl)pyrazolo[1,5-a][1,3,5]triazin-4-amine] | 0.00306 | > 20 | 0.0161 |
| CN1CC2CN(c3nc(NCc4nc5ccccc5[nH]4)n4ncc(Br)c4n3)CC2C1 (stereo not drawn) [Example 240, N-(1H-benzimidazol-2-ylmethyl)-8-bromo-2-(2-methyl-1,3,3a,4,6,6a-hexahydropyrrolo[3,4-c]pyrrol-5-yl)pyrazolo[1,5-a][1,3,5]triazin-4-amine] | 0.00769 | > 20 | 0.0386 |
| CCNc1nc(NCc2nc3ccccc3[nH]2)n2ncc(Br)c2n1 [Example 227, N4-(1H-benzimidazol-2-ylmethyl)-8-bromo-N2-ethyl-pyrazolo[1,5-a][1,3,5]triazine-2,4-diamine] | 0.0153 | > 20 | 0.0579 |
| CC1(C)CN(c2nc(NCc3nc4ccccc4[nH]3)n3ncc(Br)c3n2)CCN1 [Example 216, N-[(1H-benzimidazol-2-yl)methyl]-8-bromo-2-(3,3-dimethylpiperazin-1-yl)pyrazolo[1,5-a][1,3,5]triazin-4-amine] | 0.00736 | > 20 | 0.0168 |
| COc1cccc2[nH]c(CNc3nc(N4CCOCC4)nc4c(C5CC5)cnn34)nc12 [Example 213, 8-cyclopropyl-N-[(4-methoxy-1H-benzimidazol-2-yl)methyl]-2-morpholino-pyrazolo[1,5-a][1,3,5]triazin-4-amine] | 0.015 | > 20 | 0.0248 |
| CN1CCN(c2nc(NCc3nc4ccccc4[nH]3)n3ncc(-c4ccncc4)c3n2)CC1 [Example 242, N-[(1H-benzimidazol-2-yl)methyl]-2-(4-methylpiperazin-1-yl)-8-(pyridin-4-yl)pyrazolo[1,5-a][1,3,5]triazin-4-amine] | 0.514 | > 20 | 0.253 |
| O[C@H]1C[C@@H](Nc2nc(NCc3nc4ccccc4[nH]3)n3ncc(Br)c3n2)C1 [Example 234, cis-3-[(4-{[(1H-benzimidazol-2-yl)methyl]amino}-8-bromopyrazolo[1,5-a][1,3,5]triazin-2-yl)amino]cyclobutan-1-ol] | 0.00576 | > 20 | 0.0599 |
| CN1C[C@@H]2C[C@H]1CN2c1nc(NCc2nc3ccccc3[nH]2)n2ncc(Br)c2n1 [Example 219, N-[(1H-benzimidazol-2-yl)methyl]-8-bromo-2-[(1S,4S)-5-methyl-2,5-diazabicyclo[2.2.1]heptan-2-yl]pyrazolo[1,5-a][1,3,5]triazin-4-amine] | 0.0116 | > 20 | 0.0503 |
| CN(C)C1CCN(c2nc(NCc3nc4ccccc4[nH]3)n3ncc(Br)c3n2)CC1 [Example 201, N-[(1H-benzimidazol-2-yl)methyl]-8-bromo-2-[4-(dimethylamino)piperidin-1-yl]pyrazolo[1,5-a][1,3,5]triazin-4-amine] | 0.145 | > 20 | 0.29 |
| Fc1ccc2[nH]c(CNc3nc(N4C[C@@H]5C[C@H]4CO5)nc4c(C5CC5)cnn34)nc2c1 [Example 185, 8-cyclopropyl-N-[(5-fluoro-1H-benzimidazol-2-yl)methyl]-2-[(1S,4S)-2-oxa-5-azabicyclo[2.2.1]heptan-5-yl]pyrazolo[1,5-a][1,3,5]triazin-4-amine] | 0.0266 | > 20 | 0.0588 |
| Fc1cccc2[nH]c(CNc3nc(N4C[C@@H]5C[C@H]4CO5)nc4c(C5CC5)cnn34)nc12 [Example 183, 8-cyclopropyl-N-[(4-fluoro-1H-benzimidazol-2-yl)methyl]-2-[(1S,4S)-2-oxa-5-azabicyclo[2.2.1]heptan-5-yl]pyrazolo[1,5-a][1,3,5]triazin-4-amine] | 0.00417 | > 20 | 0.056 |
| CO[C@@H]1CCN(c2nc(NCc3nc4ccccc4[nH]3)n3ncc(Br)c3n2)C1 [Example 223, N-[(1H-benzimidazol-2-yl)methyl]-8-bromo-2-[(3R)-3-methoxypyrrolidin-1-yl]pyrazolo[1,5-a][1,3,5]triazin-4-amine] | 0.0865 | > 20 | 0.349 |
| CC(C)c1cnn2c(NCc3nc4ccccc4[nH]3)nc(Nc3ccncc3)nc12 [Example 14, N^4-[(1H-benzimidazol-2-yl)methyl]-8-(propan-2-yl)-N^2-(pyridin-4-yl)pyrazolo[1,5-a][1,3,5]triazine-2,4-diamine] | < 0.03 | > 20 | 0.047 |
